Experimental findings from patent US20100137315A1, “Sphingosine Kinase Inhibitors and Methods of Their Use” (APOGEE BIOTECHNOLOGY CORPORATION, priority 2005, published 2010) are described below.

Broadly, the IC50 is the concentration needed to halve the response being measured. As usually defined, the inhibition is the share of the control response that was lost under treatment.

The test system of assay [1] is MCF-7 human breast adenocarcinoma cells. The experiment in a line: Cytotoxicity, SRB assay, 48 h. The assay is classed as cell-based. The note with it: Table 6, 48 h, SRB, inhibition of cell proliferation, read-out: MCF-7 IC50. As to the method:
To further assess the biological efficacies of the Compounds in intact cells, each Compound was evaluated for cytotoxicity using human cancer cell lines. These experiments followed methods that have been extensively used. Cell lines tested included MCF-7 human breast adenocarcinoma cells. The indicated cell lines were treated with varying doses of the test Compound for 48 h. Cell survival was then determined using the SRB binding assay (Skehan et al., 1990, J Natl Cancer Inst 82: 1107), and the concentration of compound that inhibited proliferation by 50% (the IC50) was calculated. Values (in μM) represent the mean±sd for replicate trials.
In general terms: The SRB assay estimates cell density from bound dye.

The target in assay [2] is T1, recombinant human SK (Homo sapiens, UniProt Q9NYA1).
T1 construct: glutathione-S-transferase (GST) (N); made in house; host or cells: bacteria (pGEX vector)
The experiment in a line: Inhibition of recombinant human SK, LC/MS/MS assay. The assay is classed as biochemical. The settings on record: 6 μg/ml compound. On the procedure: An assay for identifying inhibitors of recombinant human SK has been established (French et al., 2003, Cancer Res 63: 5962). cDNA for human SK was subcloned into a pGEX bacterial expression vector, which results in expression of the enzyme as a fusion protein with glutathione-S-transferase, and the fusion protein is then purified on a column of immobilized glutathione. SK activity is measured by incubation of the recombinant SK with [^3H]sphingosine and 1 mM ATP under defined conditions, followed by extraction of the assay mixture with chloroform:methanol under basic conditions. […] Radioactivity in aliquots of the aqueous phase is then quantified as a measure of [^3H]S1P formation. There is a low background level of partitioning of [^3H]sphingosine into the aqueous phase, and addition of the recombinant SK greatly increases the formation of [^3H]S1P.
In an alternate assay procedure, the recombinant human SK was incubated with unlabeled sphingosine and ATP as described above. After 30 minutes, the reactions were terminated by the addition of acetonitrile to directly extract the newly synthesized S1P. The amount of S1P in the samples is then quantified as follows. C17 base D-erythro-sphingosine and C17 S1P are used as internal standards for sphingosine and S1P, respectively. These seventeen-carbon fatty acid-linked sphingolipids are not naturally produced, making these analogs excellent standards. The lipids are then fractionation by High-Performance Liquid Chromatography using a C8-reverse phase column eluted with 1 mM methanolic ammonium formate/2 mM aqueous ammonium formate. A Finnigan LCQ Classic LC-MS/MS is used in the multiple reaction monitoring positive ionization mode to acquire ions at m/z of 300 (precursor ion)→282 (product ion) for sphingosine and 380→264 for S1P. Calibration curves are generated by plotting the peak area ratios of the synthetic standards for each sphingolipid, and used to determine the normalized amounts of sphingosine and S1P in the samples.
Each Compound of this invention was tested for its ability to inhibit recombinant SK using the LC/MS/MS assay described above. Typically, the Compounds were individually dissolved in dimethylsulfoxide and tested at a final concentration of 6 micrograms/ml.

Like-named read-outs stand apart in the source and are kept apart here.

T1 sequence (Q9NYA1 whole entry): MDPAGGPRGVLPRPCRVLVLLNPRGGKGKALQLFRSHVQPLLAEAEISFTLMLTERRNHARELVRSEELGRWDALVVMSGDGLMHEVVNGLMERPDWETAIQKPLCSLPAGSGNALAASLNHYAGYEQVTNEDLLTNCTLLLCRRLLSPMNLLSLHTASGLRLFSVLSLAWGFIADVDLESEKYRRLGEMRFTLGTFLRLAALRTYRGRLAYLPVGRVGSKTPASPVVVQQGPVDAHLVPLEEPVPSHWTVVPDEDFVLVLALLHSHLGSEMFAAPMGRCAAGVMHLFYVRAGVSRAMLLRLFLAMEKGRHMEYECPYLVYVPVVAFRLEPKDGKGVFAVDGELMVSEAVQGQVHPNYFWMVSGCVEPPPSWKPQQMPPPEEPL

For `O=C(Nc1nc2cc(Cl)ccc2s1)c1ccccc1O` [Compound 96, N-(5-Chloro-benzothiazol-2-yl)-2-hydroxy-benzamide], the IC50 in assay [1] (Homo sapiens, MCF7) was found to be 24 µM.

As to `CCCC(=O)Oc1cc(C=CC(=O)Nc2nc(-c3ccc(Cl)cc3)cs2)ccc1OC` [Compound 18, Butyric acid 5-{2-[4-(4-chloro-phenyl)-thiazol-2-ylcarbamoyl]-vinyl}-2-methoxy-phenyl ester], the IC50 in assay [1] (Homo sapiens, MCF7) was 2.7 µM.

Regarding `O=C(NCc1ccncc1)c1nc(-c2ccc(Cl)cc2)cs1` [Compound 34, 4-(4-Chloro-phenyl)thiazole-2-carboxylic acid (pyridin-4-ylmethyl)amide], in assay [2], the inhibition at 6 µg/mL turned out to be 0%. The IC50 in assay [1] (Homo sapiens, MCF7) stood at 38 µM.

Regarding `C=CCCCCCCCCC(=O)Nc1nc2cc(Cl)ccc2o1` [Compound 90, Undec-10-enoic acid (5-chloro-benzooxazol-2-yl)-amide], the IC50 in assay [1] (Homo sapiens, MCF7) is 19 µM.

`CN(C)c1ccc(CNC(=O)c2nc(-c3ccc(Cl)cc3)cs2)cc1` [Compound 35, 4-(4-Chloro-phenyl)-thiazole-2-carboxylic acid 4-dimethylamino-benzylamide]: in assay [2], the inhibition at 6 µg/mL was 80%. Besides, the half-maximal inhibitory concentration (IC50) in assay [1] (Homo sapiens, MCF7) was determined as 130 µM.

Consider `CCCC(=O)Oc1cccc(C=CC(=O)Nc2nc(-c3ccc(Cl)cc3)cs2)c1` [Compound 14, Butyric acid 3-{2-[4-(4-chloro-phenyl)-thiazol-2-ylcarbamoyl]-vinyl}-phenyl ester], for which, in assay [2], the inhibition at 6 µg/mL was 0%. The IC50 in assay [1] (Homo sapiens, MCF7) amounted to 2.9 µM.

Take `CCCC(=O)Oc1ccc(CC(=O)Nc2nc(-c3ccc(Cl)cc3)cs2)cc1OC(=O)CCC` [Compound 17, Butyric acid 2-butyryloxy-5-{[4-(4-chloro-phenyl)-thiazol-2-ylcarbamoyl]-methyl}-phenyl ester]: the IC50 in assay [1] (Homo sapiens, MCF7) was determined as 4 µM.

As to `C=CCCCCCCCCC(=O)Nc1nc(-c2ccc(Cl)cc2)cs1` [Compound 4, Undec-10-enoic acid [4-(4-chloro-phenyl)-thiazol-2-yl]-amide], the inhibition at 6 µg/mL in assay [2] is 53%. Further, the IC50 in assay [1] (Homo sapiens, MCF7) amounted to 33 µM.

For `CCCCCCCCCCCCCC(=O)Nc1nc2cc(Cl)ccc2o1` [Compound 91, Tetradecanoic Acid (5-chloro-benzooxazol-2-yl)-amide], the 50% inhibitory concentration (IC50) in assay [1] (Homo sapiens, MCF7) was determined as 2.6 µM.

In the case of `Clc1ccc(-c2csc(N(Cc3ccccc3)Cc3ccccc3)n2)cc1` [Compound 72, Dibenzyl-[4-(4-chloro-phenyl)-thiazol-2-yl]-amine], in assay [2], the inhibition at 6 µg/mL came to 79%. The IC50 in assay [1] (Homo sapiens, MCF7) came out at 127 µM.

Take “4-(4-Chloro-phenyl)-thiazole-2-carboxylic acid (2-pyridin-4-yl)-amide [Compound 74]”: the IC50 in assay [1] amounted to 120 µM.

For `O=C(C=Cc1ccccc1)Nc1nc2cc(Cl)ccc2o1` [Compound 88, N-(5-Chloro-benzooxazol-2-yl)-3-phenyl-acrylamide], the IC50 in assay [1] (Homo sapiens, MCF7) was found to be 1.3 µM.

Regarding `O=C(Nc1nc2cc(Cl)ccc2o1)c1ccccc1[N+](=O)[O-]` [Compound 87, N-(5-Chloro-benzooxazol-2-yl)-2-nitro-benzamide], the IC50 in assay [1] (Homo sapiens, MCF7) is 9.8 µM.

For `O=C(C=Cc1ccc([N+](=O)[O-])cc1)Nc1nc2cc(Cl)ccc2o1` [Compound 89, N-(5-Chloro-benzooxazol-2-yl)-3-(4-nitro-phenyl)-acrylamide], the IC50 in assay [1] (Homo sapiens, MCF7) was determined as 1.2 µM.

On to `CCCC(=O)Oc1ccc(C=CC(=O)Nc2nc(-c3ccc(Cl)cc3)cs2)cc1OC(=O)CCC` [Compound 11, Butyric acid 2-butyryloxy-5-{2-[4-(4-chloro-phenyl)-thiazol-2-ylcarbamoyl]-vinyl}-phenyl ester], for which the IC50 in assay [1] (Homo sapiens, MCF7) was found to be 10 µM.

Turning to `O=C(NCc1ccc(F)c(C(F)(F)F)c1)c1nc(-c2ccc(Cl)cc2)cs1` [Compound 53, 4-(4-Chloro-phenyl)-thiazole-2-carboxylic Acid 4-fluoro-3-trifluoromethyl-benzylamide], in assay [2], the inhibition at 6 µg/mL came out at 44%.

Take `CCSCCNC(=O)c1nc(-c2ccc(Cl)cc2)cs1` [Compound 48, 4-(4-Chloro-phenyl)-thiazole-2-carboxylic Acid (2-ethylsulfanyl-ethyl)-amide]: the inhibition at 6 µg/mL in assay [2] is 56%.

As for `O=C(Nc1cc(F)cc(F)c1)c1nc(-c2ccc(Cl)cc2)cs1` [Compound 50, 4-(4-Chloro-phenyl)-thiazole-2-carboxylic Acid (3,5-difluoro-phenyl)-amide], the inhibition at 6 µg/mL in assay [2] was determined as 21%.

With `O=C(Nc1nc(-c2ccc(Cl)cc2)cs1)c1ccc(C(F)(F)F)cc1F` [Compound 66, N-[4-(4-Chloro-phenyl)-thiazol-2-yl]-2-fluoro-4-trifluoromethyl-benzamide], the inhibition at 6 µg/mL in assay [2] was 61%.

Consider `O=C(Cc1ccc(F)cc1)Nc1nc(-c2ccc(Cl)cc2)cs1` [Compound 70, N-[4-(4-Chloro-phenyl)-thiazol-2-yl]-2-(4-fluoro-phenyl)-acetamide], for which the inhibition at 6 µg/mL in assay [2] was found to be 54%.

Regarding `O=C(NCc1cccc(OC(F)(F)F)c1)c1nc(-c2ccc(Cl)cc2)cs1` [Compound 43, 4-(4-Chloro-phenyl)-thiazole-2-carboxylic acid 3-trifluoromethoxy-benzylamide], the inhibition at 6 µg/mL in assay [2] is 59%.

In the case of `CCCC(=O)Oc1ccc(C(=O)Nc2nc(-c3ccc(Cl)cc3)cs2)cc1OC` [Compound 24, Butyric acid 4-[4-(4-chloro-phenyl)-thiazol-2-ylcarbamoyl]-2-methoxy-phenyl ester], the inhibition at 6 µg/mL in assay [2] turned out to be 0%.

In the case of `COc1cc(C=CC(=O)Nc2nc(-c3cccc(Cl)c3)cs2)ccc1O` [Compound 9, N-[4-(3-Chloro-phenyl)-thiazol-2-yl]-3-(4-hydroxy-3-methoxy-phenyl)-acrylamide], the IC50 in assay [1] (Homo sapiens, MCF7) stood at 7.8 µM.

With `CCCCCCCCCCCCCCCC(=O)Nc1nc2cc(Cl)ccc2o1` [Compound 92, Hexadecanoic Acid (5-chloro-benzooxazol-2-yl)-amide], the IC50 in assay [1] (Homo sapiens, MCF7) was found to be 7.6 µM.

Turning to `CC(C)(C)NCCCNC(=O)c1nc(-c2ccc(Cl)cc2)cs1` [Compound 57, 4-(4-Chloro-phenyl)-thiazole-2-carboxylic Acid (3-tert-butylamino-propyl)-amide], the inhibition at 6 µg/mL in assay [2] is 16%.

Turning to `O=C(NCc1ccc(F)cc1Cl)c1nc(-c2ccc(Cl)cc2)cs1` [Compound 38, 4-(4-Chloro-phenyl)-thiazole-2-carboxylic acid 2-chloro-4-fluoro-benzylamide], in assay [2], the inhibition at 6 µg/mL stood at 75%.

As to `CCCC(=O)Oc1ccc(C(=O)Nc2nc(-c3ccc(Cl)cc3)cs2)cc1OC(=O)CCC` [Compound 25, Butyric acid 2-butyryloxy-4-[4-(4-chloro-phenyl)-thiazol-2-ylcarbamoyl]-phenyl ester], the inhibition at 6 µg/mL in assay [2] was determined as 0%.

With `CC(NC(=O)c1nc(-c2ccc(Cl)cc2)cs1)c1ccc(Cl)cc1` (stereo not drawn) [Compound 56, 4-(4-Chloro-phenyl)-thiazole-2-carboxylic Acid [1-(4-chloro-phenyl)-ethyl]-amide], in assay [2], the inhibition at 6 µg/mL was determined as 81%.

With `CCCC(=O)Oc1ccc(CC(=O)Nc2nc(-c3ccc(Cl)cc3)cs2)cc1OC` [Compound 16, Butyric acid 4-{[4-(4-chloro-phenyl)-thiazol-2-ylcarbamoyl]-methyl}-2-methoxy-phenyl ester], the IC50 in assay [1] (Homo sapiens, MCF7) turned out to be 5.6 µM.

Take `O=C(CCc1ccc(F)cc1F)Nc1nc(-c2ccc(Cl)cc2)cs1` [Compound 47, N-[4-(4-Chloro-phenyl)-thiazol-2-yl]-3-(2,4-difluoro-phenyl)-propionamide]: the inhibition at 6 µg/mL in assay [2] amounted to 21%.

Turning to `CC(=O)Oc1ccc(C=CC(=O)Nc2nc(-c3ccc(Cl)cc3)cs2)cc1` [Compound 12, Acetic acid 4-{2-[4-(4-chloro-phenyl)-thiazol-2-ylcarbamoyl]-vinyl}-phenyl ester], in assay [1] (Homo sapiens, MCF7), the IC50 stood at 125 µM.

Take `O=C(Nc1nnn[nH]1)c1nc(-c2ccc(Cl)cc2)cs1` [Compound 62, 4-(4-Chloro-phenyl)-thiazole-2-carboxylic Acid (1H-tetrazol-5-yl)-amide]: the inhibition at 6 µg/mL in assay [2] came out at 60%.

Consider `O=C(Cc1ccc2c(c1)OCO2)Nc1nc(-c2ccc(Cl)cc2)cs1` [Compound 22, 2-Benzo[1,3]dioxol-5-yl-N-[4-(4-chloro-phenyl)-thiazol-2-yl]-acetamide], for which, in assay [2], the inhibition at 6 µg/mL stood at 34%.

Regarding `O=C(NCc1cc(F)cc(C(F)(F)F)c1)c1nc(-c2ccc(Cl)cc2)cs1` [Compound 75, 4-(4-Chloro-phenyl)-thiazole-2-carboxylic acid 3-fluoro-5-trifluoromethyl-benzylamide], the inhibition at 6 µg/mL in assay [2] is 3%.
